Read-outs that look alike come from different tables or passages of the source.

The record followed here is patent US20250221988A1 (Cullgen (Shanghai), Inc., priority 2022, published 2025).

In experiment [1] the test system is MV4;11 cells. The experiment can be described thus: Cell viability assay (CellTiter-Glo) in MV4;11 cells. The format is cell-based. As to conditions: read-out: MV4. A digest of the protocol: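 After three days' exposure to 3-fold serial compound dilutions (8 or 12 points), viability of cells seeded at 5000/well is read by CellTiter-Glo. Runs were done alone or combined with gilteritinib at 10 nM (MV4;11) or 20 nM (MOLM-13); IC50 from nonlinear regression.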
On the technique in general: Cellular ATP, detected with luciferase, serves as a proxy for viable cell number.

Experiment [2] concerns MOLM-13 cells. The experiment can be described thus: Cell viability assay (CellTiter-Glo) in MOLM-13 cells. Format: cell-based.
Where [3] appears, read: Homo sapiens, MV4-11, 72 h, 11 IC50 (nM).
Where [4] appears, read: 11 IC50 (nM) + 10 nM Gil, MV4;11 cells, with 10 nM gilteritinib, three days.
The mark [5] stands for this setting: Homo sapiens, MOLM-13, 72 h, read-out: MOLM-13 IC50 (nM).
[6] abbreviates: read-out: MOLM-13 IC50 (nM) + 10 nM Gil, MOLM-13 cells, with gilteritinib, three days.
[7] abbreviates: Homo sapiens, MV4-11, 72 h, MV4;11 cells, compound alone, three days, 11 IC50.
The mark [8] stands for this setting: Homo sapiens, 72 h, MOLM-13 cells, compound alone, three days, read-out: MOLM-13 IC50.
Where [9] appears, read: MOLM-13 cells, with gilteritinib, three days, read-out: MOLM-13 IC50 (nM) + 10 nM Gil.
[10] abbreviates: MV4;11 cells, with 10 nM gilteritinib, three days, 11 IC50 (nM) + 10 nM Gil.

In the case of `O=C1CCC(N2Cc3ccc(CC[C@H]4C[C@H](n5cc(-c6cnc7ccccc7n6)c(C6CC6)n5)C4)cc3C2=O)C(=O)N1` (stereo partly drawn) [GS-725, 3-(6-(2-(Trans-3-(3-cyclopropyl-4-(quinoxalin-2-yl)-1H-pyrazol-1-yl)cyclobutyl)ethyl)-1-oxoisoindolin-2-yl)piperidine-2,6-dione], the IC50 in experiment [1] (setting [3]) is 100 to 1000 nM; in experiment [1] (setting [4]), 10 to 100 nM; in experiment [2] (setting [5]) it was more than 1000 nM; in experiment [2] (setting [6]) it was 100 to 1000 nM.
Regarding `O=C1CCC(N2C(=O)c3ccc(NC[C@H]4C[C@H](n5cc6ccccc6n5)C4)cc3C2=O)C(=O)N1` (stereo partly drawn) [GS-727, 5-(((Trans-3-(2H-indazol-2-yl)cyclobutyl)methyl)amino)-2-(2,6-dioxopiperidin-3-yl)isoindoline-1,3-dione], the IC50 was more than 1000 nM in experiment [1] (setting [3]), 100 to 1000 nM in experiment [1] (setting [4]), more than 1000 nM in experiment [2] (setting [5]) and 100 to 1000 nM in experiment [2] (setting [6]).
`O=C1CCC(N2C(=O)c3ccc(NC[C@H]4C[C@H](n5ncc6ccccc65)C4)cc3C2=O)C(=O)N1` (stereo partly drawn) [GS-728, 5-(((Trans-3-(1H-indazol-1-yl)cyclobutyl)methyl)amino)-2-(2,6-dioxopiperidin-3-yl)isoindoline-1,3-dione]: the IC50 was more than 1000 nM in experiment [1] (setting [7]), more than 1000 nM in experiment [2] (setting [8]) and 10 to 100 nM in experiment [2] (setting [9]).
`CC(C)n1ncc2ccc(-c3cn([C@H]4C[C@H](CNc5ccc6c(c5)C(=O)N(C5CCC(=O)NC5=O)C6=O)C4)nc3C3CC3)nc21` (stereo partly drawn) [GS-730, 5-(((Trans-3-(3-cyclopropyl-4-(1-isopropyl-1H-pyrazolo[3,4-b]pyridin-6-yl)-1H-pyrazol-1-yl)cyclobutyl)methyl)amino)-2-(2,6-dioxopiperidin-3-yl)isoindoline-1,3-dione]: the IC50 in experiment [1] (setting [3]) was in the range of 10 to 100 nM; in experiment [1] (setting [4]), 10 to 100 nM; in experiment [2] (setting [5]), 100 to 1000 nM; in experiment [2] (setting [6]), 10 to 100 nM.
As for `Cc1nc(-c2cn([C@H]3C[C@H](CNc4ccc5c(c4)C(=O)N(C4CCC(=O)NC4=O)C5)C3)nc2C2CC2)ccc1F` (stereo partly drawn) [GS-732, 3-(6-(((Trans-3-(3-cyclopropyl-4-(5-fluoro-6-methylpyridin-2-yl)-1H-pyrazol-1-yl)cyclobutyl)methyl)amino)-1-oxoisoindolin-2-yl)piperidine-2,6-dione], the IC50 is 100 to 1000 nM in experiment [1] (setting [7]), 10 to 100 nM in experiment [1] (setting [10]), more than 1000 nM in experiment [2] (setting [8]) and 100 to 1000 nM in experiment [2] (setting [9]).
In the case of `O=C1CCC(N2C(=O)c3ccc(NC[C@H]4C[C@H](n5cc(-c6ncc(F)c7[nH]ccc67)c(C6CC6)n5)C4)cc3C2=O)C(=O)N1` (stereo partly drawn) [GS-733, 5-(((Trans-3-(3-cyclopropyl-4-(7-fluoro-1H-pyrrolo[3,2-c]pyridin-4-yl)-1H-pyrazol-1-yl)cyclobutyl)methyl)amino)-2-(2,6-dioxopiperidin-3-yl)isoindoline-1,3-dione], the IC50 in experiment [1] (setting [7]), in experiment [1] (setting [10]), in experiment [2] (setting [8]) and in experiment [2] (setting [9]) was less than 10 nM each time.
For the compound `O=C1CCC(N2C(=O)c3ccc(NC[C@H]4C[C@H](n5cc(Cc6ccccc6)c(C6CC6)n5)C4)cc3C2=O)C(=O)N1` (stereo partly drawn) [GS-735, 5-(((Trans-3-(4-benzyl-3-cyclopropyl-1H-pyrazol-1-yl)cyclobutyl)methyl)amino)-2-(2,6-dioxopiperidin-3-yl)isoindoline-1,3-dione], the IC50 in experiment [1] (setting [3]) was 10 to 100 nM; in experiment [1] (setting [4]), less than 10 nM; in experiment [2] (setting [5]) it was 10 to 100 nM; in experiment [2] (setting [6]) it was less than 10 nM.
In the case of `O=C1CCC(N2C(=O)c3ccc(NC[C@H]4C[C@H](n5cc(-n6ncc7ccccc76)c(C6CC6)n5)C4)cc3C2=O)C(=O)N1` (stereo partly drawn) [GS-736, 5-(((Trans-3-(3-cyclopropyl-4-(1H-indazol-1-yl)-1H-pyrazol-1-yl)cyclobutyl)methyl)amino)-2-(2,6-dioxopiperidin-3-yl)isoindoline-1,3-dione], the IC50 is less than 10 nM in experiment [1] (setting [3]), less than 10 nM in experiment [1] (setting [4]), 10 to 100 nM in experiment [2] (setting [5]) and less than 10 nM in experiment [2] (setting [6]).
Regarding `CC(C)n1ccc2ccc(-c3cn([C@H]4C[C@H](CNc5ccc6c(c5)C(=O)N(C5CCC(=O)NC5=O)C6=O)C4)nc3C3CC3)nc21` (stereo partly drawn) [GS-737, 5-(((Trans-3-(3-cyclopropyl-4-(1-isopropyl-1H-pyrrolo[2,3-b]pyridin-6-yl)-1H-pyrazol-1-yl)cyclobutyl)methyl)amino)-2-(2,6-dioxopiperidin-3-yl)isoindoline-1,3-dione], the IC50 lay within 10 to 100 nM in experiment [1] (setting [3]), 10 to 100 nM in experiment [1] (setting [4]), 100 to 1000 nM in experiment [2] (setting [5]) and 10 to 100 nM in experiment [2] (setting [6]).
Consider `O=C1CCC(N2C(=O)c3ccc(NC[C@H]4C[C@H](n5cc(-n6ccc7ccccc76)c(C6CC6)n5)C4)cc3C2=O)C(=O)N1` (stereo partly drawn) [GS-738, 5-(((Trans-3-(3-cyclopropyl-4-(1H-indol-1-yl)-1H-pyrazol-1-yl)cyclobutyl)methyl)amino)-2-(2,6-dioxopiperidin-3-yl)isoindoline-1,3-dione], for which the IC50 in experiment [1] (setting [3]) lay in the range of 10 to 100 nM; in experiment [1] (setting [4]) it was 10 to 100 nM; in experiment [2] (setting [5]), 100 to 1000 nM; in experiment [2] (setting [6]), 10 to 100 nM.
As to `O=C1CCC(N2C(=O)c3ccc(NC[C@H]4C[C@H](n5cc(Nc6ccccc6)c(C6CC6)n5)C4)cc3C2=O)C(=O)N1` (stereo partly drawn) [GS-739, 5-(((Trans-3-(3-Cyclopropyl-4-(phenylamino)-1H-pyrazol-1-yl)cyclobutyl)methyl)amino)-2-(2,6-dioxopiperidin-3-yl)isoindoline-1,3-dione], the IC50 in experiment [1] (setting [3]) is 10 to 100 nM; in experiment [1] (setting [4]), less than 10 nM; in experiment [2] (setting [5]) it was 10 to 100 nM; in experiment [2] (setting [6]), less than 10 nM.
Regarding `O=C1CCC(N2C(=O)c3ccc(NC[C@H]4C[C@H](n5nc(C6CC6)c6cc(N7CCNCC7)ccc65)C4)cc3C2=O)C(=O)N1` (stereo partly drawn) [GS-740, 5-(((Trans-3-(3-cyclopropyl-5-(piperazin-1-yl)-1H-indazol-1-yl)cyclobutyl)methyl)amino)-2-(2,6-dioxopiperidin-3-yl)isoindoline-1,3-dione], the IC50 was more than 1000 nM in experiment [1] (setting [7]), more than 1000 nM in experiment [2] (setting [8]) and 100 to 1000 nM in experiment [2] (setting [9]).
As to `O=C1CCC(N2C(=O)c3ccc(NC[C@H]4C[C@H](n5nc(C6CC6)cc5Cc5ccccc5)C4)cc3C2=O)C(=O)N1` (stereo partly drawn) [GS-741, 5-((Trans-3-(5-benzyl-3-cyclopropyl-1H-pyrazol-1-yl)cyclobutyl)methylamino)-2-(2,6-dioxopiperidin-3-yl)isoindoline-1,3-dione], the IC50 is 10 to 100 nM in experiment [1] (setting [7]), less than 10 nM in experiment [1] (setting [10]), 10 to 100 nM in experiment [2] (setting [8]) and 10 to 100 nM in experiment [2] (setting [9]).
Regarding `O=C1CCC(N2C(=O)c3ccc(NC[C@H]4C[C@H](n5nc(C6CC6)c6ccc(N7CCNCC7)cc65)C4)cc3C2=O)C(=O)N1` (stereo partly drawn) [GS-742, 5-(((Trans-3-(3-cyclopropyl-6-(piperazin-1-yl)-1H-indazol-1-yl)cyclobutyl)methyl)amino)-2-(2,6-dioxopiperidin-3-yl)isoindoline-1,3-dione], the IC50 in experiment [1] (setting [7]) is more than 1000 nM; in experiment [1] (setting [10]), 100 to 1000 nM; in experiment [2] (setting [8]), more than 1000 nM; in experiment [2] (setting [9]) it was 100 to 1000 nM.
On to `CC(C)n1cc2c(-c3cn([C@H]4C[C@H](CNc5ccc6c(c5)C(=O)N(C5CCC(=O)NC5=O)C6=O)C4)nc3C3CC3)ncc(F)c2n1` (stereo partly drawn) [GS-743, 5-(((Trans-3-(3-cyclopropyl-4-(7-fluoro-2-isopropyl-2H-pyrazolo[4,3-c]pyridin-4-yl)-1H-pyrazol-1-yl)cyclobutyl)methyl)amino)-2-(2,6-dioxopiperidin-3-yl)isoindoline-1,3-dione], for which the IC50 in experiment [1] (setting [7]), in experiment [1] (setting [10]), in experiment [2] (setting [8]) and in experiment [2] (setting [9]) was less than 10 nM each time.
